Data reported in patent US20240279232A1, “USE OF SUBSTITUTED 5-(4-METHYL-6-PHENYL-4H-BENZO[F]IMIDAZO[1,5-A][1,4] DIAZEPIN-3-YL)-1,2,4-O[…] THE TREATMENT OF INFLAMMATORY CONDITIONS” (priority 2021, published 2024).

Columns and labels:
[1] = system: RAW macrophages; test: NO production (Griess assay), LPS/IFNγ-activated RAW264.7 macrophages; assay type: cell-based, mouse; conditions: for Inhibition of NO production (%) RAW macrophages 10 μM: 24 hours, 1 μM GABA, LPS/IFNγ
[2] = system: Mouse microglia; test: NO production (Griess assay), LPS/IFNγ-activated mouse microglia; assay type: cell-based; conditions: for Inhibition of NO production (%) Mouse microglia 10 μM: 24 hours, 1 μM GABA, LPS/IFNγ
Procedure: (§1) Next, a library of GABAAR ligands was investigated to identify compounds that reduce the production of NO as a marker of anti-inflammatory activity. […] NO was quantified with a Greiss assay. Cell viability was determined with CellTiter-Glo.
Cell culture. A) HMC3 Microglia (CRL-3304) were maintained in treated cell culture flasks (Nunc, 156472) with EMEM (Corning, 10010CV) supplemented with 10% heat-inactivated FBS (Corning, 35011CV) and 100 U/mL penicillin and 100 μg/mL streptomycin (Hyclone, SV30010). Cultures were maintained at 37° C. and 5% CO2. When cells reached a density of 7×10^4 cells/mL, cultures were passaged with 0.25% Trypsin (Corning, 25-053-CI) and resuspended to a density no lower than 10,000 cells/mL. B) Human and mouse microglia cell lines were a gift from Dr. David Alvarez-Carbonell at Case Western Reserve University (Cleveland, OH). Microglia were cultured in cell culture treated flasks (Nunc, 156472) with DME/F12 media (Hyclone, SH30023.01) supplemented with 10% heat-inactivated FBS (Corning, 35011CV), 100 U/mL penicillin/100 μg/mL streptomycin (Hyclone, SV30010), and Normocin (Invivogen, ant-nr). Cultures were maintained at 37° C. and 5% CO2. […] Cultures were maintained at 37° C. and 5% CO2. Cells were passaged when they reached a density of approximately 3×10^6 cells/mL using cell scrapers (VWR, 10062-906) to lift cells from flask surface and resuspended at densities of approximately 500,000 cells/mL.
(§2) Nitric oxide production (Griess assay) and viability assay (CellTiter-Glo). 80 μL of mouse microglia culture (1×10^6 cells/mL) was plated into sterile 384 well plates representing non-activated wells. The remaining culture was activated with 50 ng/ml LPS (Invivogen, NC9836) and 150 U/mL IFNγ (R&D Systems, 485MI100) and distributed into the 384 well plates. […] Assay plates were incubated for approximately 24 hours (unless otherwise noted) at 37° C., centrifuged, and 40 μL of supernatant transferred to a new plate for analysis using the Griess Assay (Promega, Madison, WI). Absorbance at 530 nm was measured using a TECAN Infinite M1000 plate reader. The remaining 40 μL containing cells was analyzed for toxicity by the CellTiter-Glo Assay (Promega, Madison, WI). Luminescence was read using a TECAN Infinite M1000 plate reader.

[3] = system: RAW macrophages; test: Cell viability (CellTiter-Glo), RAW macrophages; assay type: cell-based, mouse; conditions: CellTiter-Glo
[4] = system: Mouse microglia; test: Cell viability (CellTiter-Glo), mouse microglia; assay type: cell-based; conditions: 50 μM, CellTiter-Glo
Procedure: as §1, §2

[5] = system: HEK293; test: Viability assay (CellTiter-Glo), HEK293; assay type: cell-based, human; conditions: for Cell viability (%) HEK293 120 μM: CellTiter-Glo
Procedure: (§3) The screen identified several compounds that reduced NO in activated microglia and macrophages. The tested compounds included achiral and chiral imidazodiazepines and benzodiazepines. In general, microglia were more sensitive to compound treatment with more pronounced reduction of NO than macrophages. […] Cell viability assays with HEK293 (kidney) and HepG2 (liver) cells were conducted in a concentration dependent manner. A limited number of compounds, such as GL-III-63, GL-III-76A, and GL-III-77, were toxic at 120 μM.
(§4) Viability assay. Human liver hepatocellular carcinoma (HEPG2) and human embryonic kidney 293T (HEK293T) cell lines were purchased (ATCC) and cultured in 75 cm^2 flasks (CellStar). Cells were grown in DMEM/High Glucose (Hyclone, #SH3024301) media to which non-essential amino acids (Hyclone, #SH30238.01), 10 mM HEPES (Hyclone, #SH302237.01), 5×10^6 units of penicillin and streptomycin (Hyclone, #SV30010), and 10% of heat inactivated fetal bovine serum (Gibco, #10082147) were added. Cells were harvested using 0.05% Trypsin (Hyclone, #SH3023601), washed with PBS, and dispensed into sterile white, optical bottom 384-well plates (NUNC, #142762). After three hours, small molecule DMSO solutions were transferred with a Tecan Freedom EVO liquid handling system equipped with a 100 nL pin tool (V&P Scientific). The controls were 3-dibutylamino-1-(4-hexyl-phenyl)-propan-1-one (25 mM in DMSO, positive control) and DMSO (negative control). The cells were incubated for 48 hours followed by the addition of CellTiter-Glo™, a luminescence-based cell viability assay (Promega, Madison, WI). All luminescence readings were performed on a Tecan Infinite M1000 plate reader. The assay was carried out in quadruplet with two independent runs. The data were analyzed by nonlinear regression.

[6] = system: HEPG2; test: Viability assay (CellTiter-Glo), HEPG2; assay type: cell-based, human; conditions: for Cell viability (%) HEPG2 120 μM: CellTiter-Glo
Procedure: as §3, §4

[7] = molecular target: T1, KOR (κ opioid receptor) (Homo sapiens, UniProt P41145); test: KOR radioligand binding ([3H]-U69593, HEK293 cell homogenates)
T1 construct: expressed in transfected cells; host or cells: HEK293 (stably transfected)
T1 sequence (P41145 whole entry): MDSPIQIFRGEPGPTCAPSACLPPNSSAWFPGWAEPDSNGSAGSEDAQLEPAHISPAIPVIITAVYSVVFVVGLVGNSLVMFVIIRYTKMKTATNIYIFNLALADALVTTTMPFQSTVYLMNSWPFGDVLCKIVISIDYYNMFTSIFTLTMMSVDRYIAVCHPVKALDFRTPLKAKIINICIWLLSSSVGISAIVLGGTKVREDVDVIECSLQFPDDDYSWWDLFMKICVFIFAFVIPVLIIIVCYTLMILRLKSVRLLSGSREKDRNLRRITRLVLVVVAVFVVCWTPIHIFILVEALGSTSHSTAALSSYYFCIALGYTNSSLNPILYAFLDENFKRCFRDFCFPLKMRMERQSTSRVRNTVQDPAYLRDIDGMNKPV

[8] = molecular target: T2, MOR (μ opioid receptor) (Homo sapiens, UniProt P35372); test: MOR radioligand binding ([3H]-DAMGO, HEK293 cell homogenates)
T2 construct: expressed in transfected cells; host or cells: HEK293
T2 sequence (P35372 whole entry, species assumed): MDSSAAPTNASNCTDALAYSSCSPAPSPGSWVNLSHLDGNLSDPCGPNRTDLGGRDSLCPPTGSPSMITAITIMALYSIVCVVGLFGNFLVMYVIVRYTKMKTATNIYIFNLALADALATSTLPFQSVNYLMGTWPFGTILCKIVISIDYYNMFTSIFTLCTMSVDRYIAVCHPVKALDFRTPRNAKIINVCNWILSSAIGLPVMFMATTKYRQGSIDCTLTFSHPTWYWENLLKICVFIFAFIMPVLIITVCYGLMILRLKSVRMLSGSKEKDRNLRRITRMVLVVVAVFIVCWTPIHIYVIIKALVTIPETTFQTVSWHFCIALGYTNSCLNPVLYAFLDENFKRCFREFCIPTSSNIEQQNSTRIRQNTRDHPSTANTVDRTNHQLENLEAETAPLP

[9] = molecular target: T3, DOR (δ opioid receptor) (Homo sapiens, UniProt P41143); test: DOR radioligand binding ([3H]-DADLE, HEK293 cell homogenates); conditions: Percent inhibition at 10,000 nM; [3H]-DADLE
T3 construct: expressed in transfected cells; host or cells: HEK293
T3 sequence (P41143 whole entry): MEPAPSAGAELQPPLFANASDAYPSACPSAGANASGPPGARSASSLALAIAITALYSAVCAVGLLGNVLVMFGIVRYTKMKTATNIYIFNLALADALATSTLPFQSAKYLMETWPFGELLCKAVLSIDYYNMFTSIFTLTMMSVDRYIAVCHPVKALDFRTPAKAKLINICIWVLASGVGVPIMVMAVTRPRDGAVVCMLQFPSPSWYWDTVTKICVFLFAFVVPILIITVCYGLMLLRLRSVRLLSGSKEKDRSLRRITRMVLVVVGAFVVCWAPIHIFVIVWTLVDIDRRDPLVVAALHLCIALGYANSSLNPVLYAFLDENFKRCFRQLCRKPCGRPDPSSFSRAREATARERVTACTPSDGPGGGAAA

[10] = system: BZR (benzodiazepine site of GABAAR); test: GABAAR/BZR binding, rat brain homogenate with 3H-flunitrazepam; conditions: rat brain homogenate, 3H-flunitrazepam
Method in brief: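 Primary screen at 10,000 nM; where displacement exceeded 50%, Ki came from nonlinear regression of concentration–response data (n=6). Radioligand was 3H-flunitrazepam at roughly Kd on rat brain homogenate, usually 90 min, room temperature, dark, with 10 μM reference compound for nonspecific binding, then filtration and scintillation counting.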

Q: Which “Inhibition of NO production (%) RAW macrophages 10 μM” value [1] does the source give for `CC1N=C(c2ccccc2F)c2cc(Br)ccc2-n2cnc(-c3cnco3)c21` (racemic) [GL-III-76A] here?
A: The value was 6 ± 3%.

Q: What about the “Inhibition of NO production (%) Mouse microglia 10 μM” value [2] of the same compound?
A: The value was 58 ± 9%.

Q: What about the “Cell viability (%) RAW macrophages 50 μM” value [3] of the same compound?
A: The value was 97 ± 4%.

Q: What about the “Cell viability (%) Mouse microglia 50 μM” value [4] of the same compound?
A: Its value is 100 ± 9%.

Q: And the “Cell viability (%) HEK293 120 μM” value [5]?
A: Its value is 0 ± 3%.

Q: And the “toxicity at 120 μM (in words)” value ([5]; HEK293, 120 μM)?
A: Its value is “toxic”.

Q: What about the “Cell viability (%) HEPG2 120 μM” value [6] of the same compound?
A: Its value is 0 ± 2%.

Q: What about the “toxicity at 120 μM (in words)” value ([6]; HepG2, 120 μM) of the same compound?
A: The value was “toxic”.

Q: For `C#Cc1ccc2c(c1)C(c1ccccc1)=NCc1c(C(=O)OCCCO)ncn1-2` [GL-I-48], which “Inhibition of NO production (%) RAW macrophages 10 μM” value [1] is on record?
A: The value was 4 ± 2%.

Q: What about the “Inhibition of NO production (%) Mouse microglia 10 μM” value [2] of the same compound?
A: Its value is 0 ± 4%.

Q: What about the “Cell viability (%) RAW macrophages 50 μM” value [3] of the same compound?
A: Its value is 100 ± 12%.

Q: What about the “Cell viability (%) Mouse microglia 50 μM” value [4] of the same compound?
A: Its value is 78 ± 5%.

Q: What about the “Cell viability (%) HEK293 120 μM” value [5] of the same compound?
A: Its value is 65 ± 8%.

Q: What about the “Cell viability (%) HEPG2 120 μM” value [6] of the same compound?
A: The value was 100 ± 4%.

Q: Which “Inhibition of NO production (%) RAW macrophages 10 μM” value [1] does the source give for `O=C(O)c1ncn2c1CN=C(c1ccccc1)c1cc(Br)ccc1-2` [GL-I-50] here?
A: The value was 0 ± 1%.

Q: And the “Inhibition of NO production (%) Mouse microglia 10 μM” value [2]?
A: The value was 33 ± 6%.

Q: What about the “Cell viability (%) RAW macrophages 50 μM” value [3] of the same compound?
A: The value was 100 ± 9%.

Q: And the “Cell viability (%) Mouse microglia 50 μM” value [4]?
A: Its value is 88 ± 9%.

Q: And the “Cell viability (%) HEK293 120 μM” value [5]?
A: Its value is 97 ± 12%.

Q: And the “Cell viability (%) HEPG2 120 μM” value [6]?
A: Its value is 100 ± 2%.

Q: Which “Inhibition of NO production (%) RAW macrophages 10 μM” value [1] does the source give for `C#Cc1ccc2c(c1)C(c1ccccc1F)=N[C@H](C)C(=O)N2` [GL-I-62] here?
A: The value was 3 ± 2%.

Q: And the “Inhibition of NO production (%) Mouse microglia 10 μM” value [2]?
A: The value was 13 ± 7%.

Q: What about the “Cell viability (%) RAW macrophages 50 μM” value [3] of the same compound?
A: Its value is 100 ± 3%.

Q: What about the “Cell viability (%) Mouse microglia 50 μM” value [4] of the same compound?
A: The value was 92 ± 7%.

Q: And the “Cell viability (%) HEK293 120 μM” value [5]?
A: The value was 79 ± 7%.

Q: And the “Cell viability (%) HEPG2 120 μM” value [6]?
A: The value was 89 ± 10%.

Q: What does the source list for `C#Cc1ccc2c(c1)C(c1ccccc1F)=N[C@@H](C)C(=O)N2` [GL-I-64]?
A: Inhibition of NO production (%) RAW macrophages 10 μM [1]: 3 ± 3%; Inhibition of NO production (%) Mouse microglia 10 μM [2]: 24 ± 3%; Cell viability (%) RAW macrophages 50 μM [3]: 100 ± 5%; Cell viability (%) Mouse microglia 50 μM [4]: 81 ± 5%; Cell viability (%) HEK293 120 μM [5]: 77 ± 13%; Cell viability (%) HEPG2 120 μM [6]: 100 ± 9%

Q: For `C#Cc1ccc2c(c1)C(c1ccccc1F)=N[C@@H](C)c1c(-c3nc(C(C)C)no3)ncn1-2` [GL-I-81, (S)-5-(8-Ethynyl-6-(2-fluorophenyl)-4-methyl-4H-benzo[f]imidazo[1,5-a][1,4]diazepin-3-yl)-3-isopropyl-1,2,4-oxadiazole], which Ki [7] is on record?
A: The Ki was 127 nM.

Q: And the inhibition at 10 µM ([7]; Percent inhibition at 10,000 nM, [3H]-U69593)?
A: The inhibition at 10 µM was 93%.

Q: What about the Ki [8] of the same compound?
A: Its Ki is 2920 nM.

Q: What about the inhibition at 10 µM ([8]; Percent inhibition at 10,000 nM, [3H]-DAMGO) of the same compound?
A: The inhibition at 10 µM was 64%.

Q: What about the inhibition at 10 µM [9] of the same compound?
A: The inhibition at 10 µM was 25%.

Q: What about the BZR % ([10]; Percent inhibition at 10,000 nM) of the same compound?
A: Its BZR % is 83%.

Q: And the Ki [10]?
A: The Ki was 839 nM.

Q: What about the inhibition at 10 µM ([1]; Mus musculus, Macrophage, 24 h) of the same compound?
A: Its inhibition at 10 µM is 0%.

Q: And the inhibition at 50 µM ([1]; Mus musculus, Macrophage, 24 h)?
A: Its inhibition at 50 µM is 6 ± 2%.

Q: What about the inhibition at 10 µM ([2]; Mus musculus, Microglia, 24 h) of the same compound?
A: Its inhibition at 10 µM is 64 ± 9%.

Q: And the inhibition at 50 µM ([2]; Mus musculus, Microglia, 24 h)?
A: The inhibition at 50 µM was 87 ± 2%.

Q: And the “Cell viability (%) RAW macrophages 50 μM” value [3]?
A: The value was 91 ± 7%.

Q: And the “Cell viability (%) Mouse microglia 50 μM” value [4]?
A: Its value is 94 ± 10%.

Q: `CC1N=C(c2ccccn2)c2cc(Br)ccc2NC1=O` (stereo not drawn) [GL-II-05] was tested. Which “Inhibition of NO production (%) RAW macrophages 10 μM” value [1] did it give?
A: The value was 0 ± 1%.

Q: What about the “Inhibition of NO production (%) Mouse microglia 10 μM” value [2] of the same compound?
A: Its value is 12 ± 5%.

Q: And the “Cell viability (%) RAW macrophages 50 μM” value [3]?
A: Its value is 100 ± 11%.

Q: What about the “Cell viability (%) Mouse microglia 50 μM” value [4] of the same compound?
A: The value was 88 ± 8%.

Q: And the “Cell viability (%) HEK293 120 μM” value [5]?
A: The value was 94 ± 3%.

Q: What about the “Cell viability (%) HEPG2 120 μM” value [6] of the same compound?
A: Its value is 92 ± 5%.
